What was measured:
[1] = test system: adjuvant-associated biological themes in LV, SP, LN
Procedure, shortened: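 Per-mouse whole-organ transcriptomes; genes with eij/ei(c)>2.0 tested for theme enrichment via TargetMine (GO, KEGG, Reactome, others), Fisher's exact test, Holm-Bonferroni correction. Themes shared by all three mice kept at p<0.05, using the smallest p. Score per adjuvant-associated term = Σ−log(p) of matching themes.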

[2] = test system: spleen (SP); test: Whole organ transcriptome (GeneChip microarray) of spleen 6 h after adjuvant administration: sDEGs, hierarchical clustering; format: in vivo, C57BL/6 mice; conditions: i.d. administration
[3] = test system: liver (LV); test: Whole organ transcriptome (GeneChip microarray) of liver 6 h after adjuvant administration: sDEGs, hierarchical clustering; format: in vivo, C57BL/6 mice; for cluster of strongly responding individual samples in LV (clustering exceptions): key: G1 (interferon signaling); G2 (metabolism of lipids and lipoproteins); G3 (response to stress); G4 (response to wounding); G5 (phosphate-containing compound metabolic process); G6 (phagosome)

Substance: D35: A class CpG ODN (5′-GGTGCATCGATGCAGGGGGG-3′), TLR9 ligand (DNA GGTGCATCGATGCAGGGGGG; chemistry not given here)
- tissue damage-associated annotations (cell death, wounding) in LNs ([1]; LN, i.d., fold change >2): did not induce cell death and wounding in LNs
- GO annotation: Cytokine-cytokine receptor interaction (Term: cytokine) ([1]; LV, ID): 0
- GO annotation: Cytokine-cytokine receptor interaction|Endocytosis (Term: cytokine) ([1]; LV, ID): 5.2
- GO annotation: I-kappaB kinase/NF-kappaB signaling (Term: NF-kappa B signaling pathway) ([1]; LV, ID): 0
- GO annotation: NF-kappa B signaling pathway (Term: NF-kappa B signaling pathway) ([1]; LV, ID): 5.27
- GO annotation: TNF signaling pathway (Term: TNF signaling pathway) ([1]; LV, ID): 12.1
- GO annotation: activation of immune response (Term: immune response) ([1]; LV, ID): 0
- GO annotation: activation of innate immune response (Term: innate immune response) ([1]; LV, ID): 0
- GO annotation: acute inflammatory response (Term: inflammatory response) ([1]; LV, ID): 0
- GO annotation: adaptive immune response (Term: adaptive immune response) ([1]; LV, ID): 0
- GO annotation: apoptotic process (Term: apoptosis) ([1]; LV, ID): 0
- GO annotation: apoptotic signaling pathway (Term: apoptosis) ([1]; LV, ID): 0
- GO annotation: cell chemotaxis (Term: chemotaxis) ([1]; LV, ID): 4.51
- GO annotation: cell death (Term: cell death) ([1]; LV, ID): 5.7
- GO annotation: cell migration (Term: migration) ([1]; LV, ID): 0
- GO annotation: cellular response to cytokine stimulus (Term: cytokine) ([1]; LV, ID): 3.28
- GO annotation: cellular response to interferon-alpha (Term: IFN alpha) ([1]; LV, ID): 0
- GO annotation: cellular response to stress (Term: stress) ([1]; LV, ID): 0
- GO annotation: chemokine production (Term: chemokine) ([1]; LV, ID): 0
- GO annotation: chemokine-mediated signaling pathway (Term: chemokine) ([1]; LV, ID): 0
- GO annotation: chemotaxis (Term: chemotaxis) ([1]; LV, ID): 0
- GO annotation: cytokine biosynthetic process (Term: cytokine) ([1]; LV, ID): 0
- GO annotation: cytokine metabolic process (Term: cytokine) ([1]; LV, ID): 0
- GO annotation: cytokine production (Term: cytokine) ([1]; LV, ID): 0
- GO annotation: cytokine secretion (Term: cytokine) ([1]; LV, ID): 0
- GO annotation: cytokine-mediated signaling pathway (Term: cytokine) ([1]; LV, ID): 0
- GO annotation: death (Term: cell death) ([1]; LV, ID): 0
- GO annotation: defense response (Term: defense response) ([1]; LV, ID): 5.76
- GO annotation: defense response to Gram-positive bacterium (Term: defense response) ([1]; LV, ID): 0
- GO annotation: defense response to bacterium (Term: defense response) ([1]; LV, ID): 0
- GO annotation: defense response to other organism (Term: defense response) ([1]; LV, ID): 0
- GO annotation: defense response to protozoan (Term: defense response) ([1]; LV, ID): 0
- GO annotation: defense response to virus (Term: defense response) ([1]; LV, ID): 0
- GO annotation: granulocyte chemotaxis (Term: chemotaxis) ([1]; LV, ID): 0
- GO annotation: granulocyte migration (Term: migration) ([1]; LV, ID): 0
- GO annotation: immune response (Term: immune response) ([1]; LV, ID): 0
- GO annotation: immune response-activating signal transduction (Term: immune response) ([1]; LV, ID): 0
- GO annotation: immune response-regulating signaling pathway (Term: immune response) ([1]; LV, ID): 0
- GO annotation: inflammatory response (Term: inflammatory response) ([1]; LV, ID): 0
- GO annotation: innate immune response (Term: innate immune response) ([1]; LV, ID): 0
- GO annotation: innate immune response-activating signal transduction (Term: innate immune response) ([1]; LV, ID): 0
- GO annotation: interferon-alpha production (Term: IFN alpha) ([1]; LV, ID): 0
- GO annotation: intrinsic apoptotic signaling pathway (Term: apoptosis) ([1]; LV, ID): 0
- GO annotation: leukocyte chemotaxis (Term: chemotaxis) ([1]; LV, ID): 0
- GO annotation: leukocyte migration (Term: migration) ([1]; LV, ID): 0
- GO annotation: leukocyte migration involved in inflammatory response (Term: inflammatory response) ([1]; LV, ID): 0
- GO annotation: lymphocyte chemotaxis (Term: chemotaxis) ([1]; LV, ID): 0
- GO annotation: lymphocyte migration (Term: migration) ([1]; LV, ID): 0
- GO annotation: myeloid leukocyte migration (Term: migration) ([1]; LV, ID): 0
- GO annotation: negative regulation of apoptotic process (Term: apoptosis) ([1]; LV, ID): 0
- GO annotation: negative regulation of cell death (Term: cell death) ([1]; LV, ID): 0
- GO annotation: negative regulation of cytokine production (Term: cytokine) ([1]; LV, ID): 0
- GO annotation: negative regulation of defense response (Term: defense response) ([1]; LV, ID): 0
- GO annotation: negative regulation of immune response (Term: immune response) ([1]; LV, ID): 0
- GO annotation: negative regulation of innate immune response (Term: innate immune response) ([1]; LV, ID): 0
- GO annotation: negative regulation of programmed cell death (Term: cell death) ([1]; LV, ID): 0
- GO annotation: neutrophil chemotaxis (Term: chemotaxis) ([1]; LV, ID): 0
- GO annotation: neutrophil migration (Term: migration) ([1]; LV, ID): 0
- GO annotation: positive regulation of I-kappaB kinase/NF-kappaB signaling (Term: NF-kappa B signaling pathway) ([1]; LV, ID): 0
- GO annotation: positive regulation of adaptive immune response (Term: adaptive immune response) ([1]; LV, ID): 0
- GO annotation: positive regulation of apoptotic process (Term: apoptosis) ([1]; LV, ID): 3.18
- GO annotation: positive regulation of cell death (Term: cell death) ([1]; LV, ID): 0
- GO annotation: positive regulation of cell migration (Term: migration) ([1]; LV, ID): 0
- GO annotation: positive regulation of chemokine production (Term: chemokine) ([1]; LV, ID): 0
- GO annotation: positive regulation of chemotaxis (Term: chemotaxis) ([1]; LV, ID): 0
- GO annotation: positive regulation of cytokine biosynthetic process (Term: cytokine) ([1]; LV, ID): 0
- GO annotation: positive regulation of cytokine production (Term: cytokine) ([1]; LV, ID): 0
- GO annotation: positive regulation of defense response (Term: defense response) ([1]; LV, ID): 0
- GO annotation: positive regulation of immune response (Term: immune response) ([1]; LV, ID): 0
- GO annotation: positive regulation of inflammatory response (Term: inflammatory response) ([1]; LV, ID): 0
- GO annotation: positive regulation of innate immune response (Term: innate immune response) ([1]; LV, ID): 0
- GO annotation: positive regulation of interferon-alpha production (Term: IFN alpha) ([1]; LV, ID): 0
- GO annotation: positive regulation of leukocyte chemotaxis (Term: chemotaxis) ([1]; LV, ID): 0
- GO annotation: positive regulation of leukocyte migration (Term: migration) ([1]; LV, ID): 0
- GO annotation: positive regulation of programmed cell death (Term: cell death) ([1]; LV, ID): 3.05
- GO annotation: positive regulation of response to wounding (Term: wounding) ([1]; LV, ID): 0
- GO annotation: positive regulation of tumor necrosis factor superfamily cytokine (Term: cytokine) ([1]; LV, ID): 0
- GO annotation: production of molecular mediator of immune response (Term: immune response) ([1]; LV, ID): 0
- GO annotation: programmed cell death (Term: cell death) ([1]; LV, ID): 0
- GO annotation: regulation of I-kappaB kinase/NF-kappaB signaling (Term: NF-kappa B signaling pathway) ([1]; LV, ID): 0
- GO annotation: regulation of adaptive immune response (Term: adaptive immune response) ([1]; LV, ID): 0
- GO annotation: regulation of apoptotic process (Term: apoptosis) ([1]; LV, ID): 0
- GO annotation: regulation of apoptotic signaling pathway (Term: apoptosis) ([1]; LV, ID): 0
- GO annotation: regulation of cell death (Term: cell death) ([1]; LV, ID): 0
- GO annotation: regulation of cell migration (Term: migration) ([1]; LV, ID): 0
- GO annotation: regulation of chemokine production (Term: chemokine) ([1]; LV, ID): 0
- GO annotation: regulation of chemotaxis (Term: chemotaxis) ([1]; LV, ID): 0
- GO annotation: regulation of cytokine biosynthetic process (Term: cytokine) ([1]; LV, ID): 0
- GO annotation: regulation of cytokine production (Term: cytokine) ([1]; LV, ID): 0
- GO annotation: regulation of defense response (Term: defense response) ([1]; LV, ID): 0
- GO annotation: regulation of defense response to virus (Term: defense response) ([1]; LV, ID): 0
- GO annotation: regulation of defense response to virus by host (Term: defense response) ([1]; LV, ID): 0
- GO annotation: regulation of immune response (Term: immune response) ([1]; LV, ID): 0
- GO annotation: regulation of inflammatory response (Term: inflammatory response) ([1]; LV, ID): 0
- GO annotation: regulation of innate immune response (Term: innate immune response) ([1]; LV, ID): 0
- GO annotation: regulation of interferon-alpha production (Term: IFN alpha) ([1]; LV, ID): 0
- GO annotation: regulation of intrinsic apoptotic signaling pathway (Term: apoptosis) ([1]; LV, ID): 0
- GO annotation: regulation of leukocyte chemotaxis (Term: chemotaxis) ([1]; LV, ID): 0
- GO annotation: regulation of leukocyte migration (Term: migration) ([1]; LV, ID): 0
- GO annotation: regulation of programmed cell death (Term: cell death) ([1]; LV, ID): 0
- GO annotation: regulation of response to stress (Term: stress) ([1]; LV, ID): 0
- GO annotation: regulation of response to wounding (Term: wounding) ([1]; LV, ID): 0
- GO annotation: regulation of tumor necrosis factor superfamily cytokine production (Term: cytokine) ([1]; LV, ID): 0
- GO annotation: response to cytokine (Term: cytokine) ([1]; LV, ID): 8.12
- GO annotation: response to interferon-alpha (Term: IFN alpha) ([1]; LV, ID): 0
- GO annotation: response to stress (Term: stress) ([1]; LV, ID): 9.13
- GO annotation: response to wounding (Term: wounding) ([1]; LV, ID): 0
- GO annotation: taxis (Term: chemotaxis) ([1]; LV, ID): 0
- GO annotation: tumor necrosis factor superfamily cytokine production (Term: cytokine) ([1]; LV, ID): 0
- IFN beta: cellular response to interferon-beta ([1]; LV, ID): 0
- IFN beta: interferon-beta production ([1]; LV, ID): 0
- IFN beta: positive regulation of interferon-beta production ([1]; LV, ID): 0
- IFN beta: regulation of interferon-beta production ([1]; LV, ID): 0
- IFN beta: response to interferon-beta ([1]; LV, ID): 0
- IFN gamma: cellular response to interferon-gamma ([1]; LV, ID): 0
- IFN gamma: interferon-gamma production ([1]; LV, ID): 0
- IFN gamma: regulation of interferon-gamma production ([1]; LV, ID): 0
- IFN gamma: response to interferon-gamma ([1]; LV, ID): 0
- interleukin-6: interleukin-6 production ([1]; LV, ID): 0
- interleukin-6: positive regulation of interleukin-6 production ([1]; LV, ID): 0
- interleukin-6: regulation of interleukin-6 production ([1]; LV, ID): 0
- interleukin-12: interleukin-12 production ([1]; LV, ID): 0
- interleukin-12: positive regulation of interleukin-12 production ([1]; LV, ID): 0
- interleukin-12: regulation of interleukin-12 production ([1]; LV, ID): 0
- GO annotation: adaptive immune response based on somatic recombination of immune receptors built from immunoglobulin superfamily domains (Term: adaptive immune response) ([1]; mouse, in vivo): 0
- GO annotation: regulation of adaptive immune response based on somatic recombination of immune receptors built from immunoglobulin superfamily domains (Term: adaptive immune response) ([1]; mouse, in vivo): 0
- Number of gene probes with statistically significant changes (sDEGs), SP, Down ([2]; fold change <0.667, p<0.01, customized PA call=1, 6 h after adjuvant): 19
- Number of gene probes with statistically significant changes (sDEGs), SP, Up ([2]; fold change >1.5, p<0.01, customized PA call=1, 6 h after adjuvant): 23
- Number of gene probes with statistically significant changes (sDEGs), LV, Down ([3]; i.d. administration, liver, fold change <0.667, p<0.01, customized PA call=1, 6 h after adjuvant): 36
- Number of gene probes with statistically significant changes (sDEGs), LV, Up ([3]; i.d. administration, liver, fold change >1.5, p<0.01, customized PA call=1, 6 h after adjuvant): 15
- cluster of strongly responding individual samples in LV (clustering exceptions) ([3]; samples D35_ID_x2 and K3_ID_x3 only): G2
